In brackets after ≈: the same amount, converted by molar mass.
How the values were obtained:
[1] = Hemolytic activity in sheep RBC incubated for 1 hr by absorbance based analysis; assay type: toxicity, cell-based, Ovis aries, Erythrocyte; details: sheep red blood cells
Salmonella enterica [2] = assay: Antibacterial activity against Salmonella enterica 8389 assessed as inhibition of bacterial growth incubated for 16 to 20 hrs by CLSI based microdilution method; assay type: functional; details: time 16-20 hrs
[3] = Selectivity index, ratio of HC50 for hemolytic activity in sheep RBC to MIC for antibacterial activity against Staphylococcus aureus ATCC 29213; assay type: toxicity; details: sheep red blood cells
Escherichia coli = assay: Antibacterial activity against Escherichia coli ATCC 25922 assessed as inhibition of bacterial growth incubated for 16 to 20 hrs by CLSI based microdilution method; assay type: functional; details: time 16-20 hrs
Micrococcus luteus = assay: Antibacterial activity against Micrococcus luteus assessed as inhibition of bacterial growth incubated for 16 to 20 hrs by CLSI based microdilution method; assay type: functional; details: time 16-20 hrs
Salmonella enterica [4] = assay: Antibacterial activity against Salmonella enterica H9812 assessed as inhibition of bacterial growth incubated for 16 to 20 hrs by CLSI based microdilution method; assay type: functional; details: time 16-20 hrs
Staphylococcus aureus = assay: Antibacterial activity against Staphylococcus aureus ATCC 29213 assessed as inhibition of bacterial growth incubated for 16 to 20 hrs by CLSI based microdilution method; assay type: functional; details: time 16-20 hrs
Enterococcus faecalis = assay: Antibacterial activity against Enterococcus faecalis ATCC 29212 assessed as inhibition of bacterial growth incubated for 16 to 20 hrs by CLSI based microdilution method; assay type: functional; details: time 16-20 hrs

SMILES | HC50 at 1 h [1] [µg/mL] | MIC (Salmonella enterica [2]) [µg/mL] | selectivity ratio [3] | MIC (Escherichia coli) [µg/mL] | MIC (Micrococcus luteus) [µg/mL] | MIC (Salmonella enterica [4]) [µg/mL] | MIC (Staphylococcus aureus) [µg/mL] | MIC (Enterococcus faecalis) [µg/mL]
Br.C=CCc1cccc(Oc2ccc(C(=O)CC)cc2)c1OCCSC(=N)N | 789 | 64 | 24.6 | 64 | 64 | 128 | 32 | 64
C=CCc1cccc(Oc2ccc(C(=O)CC)cc2)c1OCCCC[N+](C)(C)CC(=O)N1CCCC1.[Br-] | 579 | 128 | 36.2 | 64 | 32 | 128 | 16 | 16
C=CCc1cccc(Oc2ccc(C(=O)CC)cc2)c1OCCCC[N+](C)(C)CC(=O)NCCCCC.[Br-] | 564 | 64 | 141 | 32 | 16 | 128 | 4 | 8
C=CCc1cccc(Oc2ccc(C(=O)CC)cc2)c1OCCCC[N+](C)(C)CC(=O)NCC.[Br-] | 785 | 32 | 12.2 | 64 | 128 | 64 | 64 | 128
C=CCc1cccc(Oc2ccc(C(=O)CC)cc2)c1OCCC[N+](C)(C)CC(=O)N1CCOCC1.[Br-] | 674 | > 128 | 21.1 | > 128 | 64 | 64 | 32 | 64
C=CCc1cccc(Oc2ccc(C(=O)CC)cc2)c1OCCC[N+](C)(C)CC(=O)N1CCCC1.[Br-] | 526 | 64 | 32.8 | 128 | 32 | 64 | 16 | 32
C=CCc1cccc(Oc2ccc(C(=O)CC)cc2)c1OCCC[N+](C)(C)CC(=O)NCCCCC.[Br-] | 690 | 8 | 172 | 16 | 32 | > 128 | 4 | 8
C=CCc1cccc(Oc2ccc(C(=O)CC)cc2)c1OCC[N+](C)(C)CC(=O)N1CCOCC1.[Br-] | > 1280 | 64 | > 20 | 128 | 16 | 64 | 64 | 64
C=CCc1cccc(Oc2ccc(C(=O)CC)cc2)c1OCCC[N+](C)(C)CC(=O)NCCC.[Br-] | > 1280 | 64 | > 20 | 64 | 64 | 32 | 64 | 64
C=CCc1cccc(Oc2ccc(C(=O)CC)cc2)c1OCC[N+](C)(C)CC(=O)N(CCCC)CCCC.[Br-] | 834 | 128 | 104 | 64 | 32 | 128 | 8 | 8
C=CCc1cccc(Oc2ccc(C(=O)CC)cc2)c1OCCCC[N+](C)(C)CC(=O)N(CCCC)CCCC.[Br-] | 776 | 32 | 388 | 32 | 32 | 64 | 2 | 16
C=CCc1cccc(Oc2ccc(C(=O)CC)cc2)c1OCCC[N+](C)(C)CC(=O)N(CCCC)CCCC.[Br-] | 776 | 128 | 194 | 64 | 16 | 128 | 4 | 16
C=CCc1cccc(Oc2ccc(C(=O)CC)cc2)c1OCC[N+](C)(C)CC(=O)N(CCC)CCC.[Br-] | 1110 | 32 | 138 | 64 | 16 | 64 | 8 | 16
C=CCc1cccc(Oc2ccc(C(=O)CC)cc2)c1OCC[N+](C)(C)CC(=O)NCCC.[Br-] | 634 | > 128 | 19.8 | 128 | 64 | 128 | 32 | 32
C=CCc1cccc(Oc2ccc(C(=O)CC)cc2)c1OCCCC[N+](C)(C)CC(=O)NCCCC.[Br-] | 1110 | 32 | 138 | 64 | 16 | 128 | 8 | 16
C=CCc1ccc(O)c(Oc2ccc(C(=O)CC)cc2)c1 | > 640 | > 128 | > 5 | 128 (≈ 453 µM) | 64 (≈ 227 µM) | 128 (≈ 453 µM) | 128 (≈ 453 µM) | 128 (≈ 453 µM)
C=CCc1cccc(Oc2ccc(C(=O)CC)cc2)c1OCCC[N+](C)(C)CC(=O)N(CCC)CCC.[Br-] | 854 | 64 | 53.3 | 64 | 32 | 128 | 16 | 16
CCCCCCNC(=O)C[N+](C)(C)CCOc1ccccc1Oc1ccc(C(=O)CC)cc1.[Br-] | 918 |  | 57.4 | > 128 |  |  | 16 | 
C[C@@H](O)[C@H]1C(=O)N2C(C(=O)O)=C(S[C@@H]3CN[C@H](C(=O)N(C)C)C3)[C@H](C)[C@H]12 [MEROPENEM] |  | 0.125 (≈ 0.326 µM) |  | 0.125 (≈ 0.326 µM) |  | 0.125 (≈ 0.326 µM) |  | 
C=CCc1cccc(Oc2ccc(C(=O)CC)cc2)c1OCCCC[N+](C)(C)CC(=O)NCCC.[Br-] | 823 | 128 | 25.7 | 64 | 128 | 128 | 32 | 64
C=CCc1cccc(Oc2ccc(C(=O)CC)cc2)c1OCCC[N+](C)(C)CC(=O)NCC.[Br-] | 501 | > 128 | 7.8 | 64 | 64 | > 128 | 64 | 64
C=CCc1cccc(Oc2ccc(C(=O)CC)cc2)c1O | 438 | > 128 | 3.4 | 128 (≈ 453 µM) | 64 (≈ 227 µM) | > 128 | 128 (≈ 453 µM) | 128 (≈ 453 µM)
C=CCc1cccc(Oc2ccc(C(=O)CC)cc2)c1OCCCC[N+](C)(C)CC(=O)N(CC)CC.[Br-] | > 1280 | > 128 | > 40 | 64 | 64 | > 128 | 32 | 32
C=CCc1cccc(Oc2ccc(C(=O)CC)cc2)c1OCC[N+](C)(C)CC(=O)NCC.[Br-] | 509 | 128 | 15.9 | 64 | 32 | 128 | 32 | 32
CCCCCCNC(=O)C[N+](C)(C)CCCOc1ccccc1Oc1ccc(C(=O)CC)cc1.[Br-] | 536 |  | 134 | > 128 |  |  | 4 | 

— ChEMBL document CHEMBL5236634, “Membrane-Targeting Neolignan-Antimicrobial Peptide Mimic Conjugates to Combat Methicillin-Resistant Staphylococcus aureus (MRSA) Infections” (J Med Chem, 2022)
